Test results published in article PMC12207590, “Substrate Specificity of the Organic Cation Transporters MATE1 and MATE2K and Functional Overlap with OCT1 and OCT2” (Journal of Medicinal Chemistry, 2025).
Where two headings read alike, the source gives them in different places. One block for each molecule: values may come before it.

What was measured:
[1] = biological target: T1, MATE2K (Homo sapiens, UniProt Q86VL8); assay: Uptake ratio in MATE2K-overexpressing HEK293 cells vs empty vector (2.5 μM, 1 min, HPLC-MS/MS); assay type: cell-based; parameters: key to MATE2 substrate*: 1 = substrate; 0 = no substrate
T1 sequence (Q86VL8 1-566 isoform Q86VL8-3): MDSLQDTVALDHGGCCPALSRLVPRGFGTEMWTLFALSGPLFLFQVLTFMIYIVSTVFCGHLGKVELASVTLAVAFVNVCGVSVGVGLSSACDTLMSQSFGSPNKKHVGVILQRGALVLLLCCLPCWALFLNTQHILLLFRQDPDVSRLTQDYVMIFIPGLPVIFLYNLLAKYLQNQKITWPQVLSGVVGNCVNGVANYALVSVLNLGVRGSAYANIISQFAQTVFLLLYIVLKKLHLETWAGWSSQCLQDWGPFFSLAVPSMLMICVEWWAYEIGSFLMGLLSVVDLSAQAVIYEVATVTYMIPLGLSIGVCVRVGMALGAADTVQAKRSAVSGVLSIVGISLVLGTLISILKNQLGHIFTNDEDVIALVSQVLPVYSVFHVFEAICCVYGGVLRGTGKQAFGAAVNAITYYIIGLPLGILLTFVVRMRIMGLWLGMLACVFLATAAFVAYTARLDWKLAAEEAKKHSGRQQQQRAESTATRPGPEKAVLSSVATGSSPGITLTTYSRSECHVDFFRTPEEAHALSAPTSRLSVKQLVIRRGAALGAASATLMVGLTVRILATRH

[2] = biological target: T2, OCT1 (Homo sapiens, UniProt O15245); assay: Uptake in OCT1-overexpressing HEK293 cells (substrate yes/no); assay type: cell-based; parameters: key: 1 = substrate; 0 = no substrate; details: Table S4
T2 sequence (O15245 1-554): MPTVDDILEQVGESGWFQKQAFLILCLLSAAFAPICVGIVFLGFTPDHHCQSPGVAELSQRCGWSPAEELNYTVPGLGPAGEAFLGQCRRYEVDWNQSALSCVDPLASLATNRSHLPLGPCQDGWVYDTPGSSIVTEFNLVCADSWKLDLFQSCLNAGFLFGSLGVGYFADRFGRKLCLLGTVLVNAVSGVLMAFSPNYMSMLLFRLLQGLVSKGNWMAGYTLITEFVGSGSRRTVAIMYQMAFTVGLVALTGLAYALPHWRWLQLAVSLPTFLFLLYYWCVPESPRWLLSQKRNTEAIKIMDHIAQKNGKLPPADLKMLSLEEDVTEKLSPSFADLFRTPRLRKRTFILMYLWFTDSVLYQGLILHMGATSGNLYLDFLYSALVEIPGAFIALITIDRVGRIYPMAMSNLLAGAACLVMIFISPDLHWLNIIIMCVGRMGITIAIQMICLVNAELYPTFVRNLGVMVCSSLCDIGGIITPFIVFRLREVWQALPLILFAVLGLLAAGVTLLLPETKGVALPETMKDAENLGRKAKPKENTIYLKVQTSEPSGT
Protocol: (§1) The cell lines were generated using the recombinant site-specific Flp-In^TM system as previously described. , All cell lines used in the transport experiments were cultured at 37 °C and 5% CO2 with Dulbecco’s Modified Eagle’s Medium (DMEM) supplemented with 10% (v/v) FBS and the antibiotics penicillin (100 U/mL) and streptomycin (100 μg/mL).

[3] = biological target: T3, MATE1 (Homo sapiens, UniProt Q96FL8); assay: Concentration-dependent uptake (Michaelis-Menten) via MATE1 in HEK293 cells
T3 sequence (Q96FL8 1-570): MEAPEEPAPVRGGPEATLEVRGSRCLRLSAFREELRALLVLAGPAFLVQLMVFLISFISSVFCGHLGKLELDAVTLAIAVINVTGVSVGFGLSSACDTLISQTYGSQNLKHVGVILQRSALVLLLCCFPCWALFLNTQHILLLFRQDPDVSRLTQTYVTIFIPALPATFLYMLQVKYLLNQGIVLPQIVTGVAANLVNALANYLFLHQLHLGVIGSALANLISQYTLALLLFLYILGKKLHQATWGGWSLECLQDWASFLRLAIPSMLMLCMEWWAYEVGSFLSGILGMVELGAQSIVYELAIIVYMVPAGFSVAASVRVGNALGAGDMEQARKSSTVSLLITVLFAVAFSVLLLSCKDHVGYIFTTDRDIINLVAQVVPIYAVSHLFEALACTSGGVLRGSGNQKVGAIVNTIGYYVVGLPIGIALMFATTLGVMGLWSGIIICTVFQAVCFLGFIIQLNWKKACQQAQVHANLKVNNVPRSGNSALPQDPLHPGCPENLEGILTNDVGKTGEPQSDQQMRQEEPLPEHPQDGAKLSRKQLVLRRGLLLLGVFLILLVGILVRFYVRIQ

[4] = biological target: T4, OCT2 (Homo sapiens, UniProt O15244); assay: Uptake in OCT2-overexpressing HEK293 cells (substrate yes/no); assay type: cell-based; parameters: key: 1 = substrate; 0 = no substrate; details: Table S4
T4 sequence (O15244 1-555): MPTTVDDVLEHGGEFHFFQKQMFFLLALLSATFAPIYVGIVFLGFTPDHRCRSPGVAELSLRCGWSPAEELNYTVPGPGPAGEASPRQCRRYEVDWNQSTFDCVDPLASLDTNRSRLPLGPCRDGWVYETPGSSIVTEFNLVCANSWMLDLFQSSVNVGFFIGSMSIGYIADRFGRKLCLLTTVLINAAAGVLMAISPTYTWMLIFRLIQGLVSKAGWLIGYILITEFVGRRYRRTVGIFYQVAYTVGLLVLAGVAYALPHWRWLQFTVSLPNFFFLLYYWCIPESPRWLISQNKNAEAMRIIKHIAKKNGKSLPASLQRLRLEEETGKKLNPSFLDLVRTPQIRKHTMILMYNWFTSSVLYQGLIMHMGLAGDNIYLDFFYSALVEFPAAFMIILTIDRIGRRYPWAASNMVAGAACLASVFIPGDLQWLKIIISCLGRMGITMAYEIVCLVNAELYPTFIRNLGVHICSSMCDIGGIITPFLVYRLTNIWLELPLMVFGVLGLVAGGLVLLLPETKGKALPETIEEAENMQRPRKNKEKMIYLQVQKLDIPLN
Protocol: as §1

[5] = biological target: T1, MATE2K; assay: Concentration-dependent uptake (Michaelis-Menten) via MATE2K in HEK293 cells; details: HEK293, 1 min, net uptake; for Km: read-out: MATE2K KM
[6] = biological target: T3, MATE1; assay: Uptake ratio in MATE1-overexpressing HEK293 cells vs empty vector (2.5 μM, 1 min, HPLC-MS/MS); assay type: cell-based; parameters: key to MATE1 substrate*: 1 = substrate; 0 = no substrate
[7] = biological target: T1, MATE2K; assay: in vitro; details: other cell line, pH 7.4
[8] = biological target: T3, MATE1; details: for MATE1 Clint: human, pH 7.4
[9] = biological target: T3, MATE1; assay: in vitro; details: other cell line, pH 7.4
[10] = human; cited from earlier work
[11] = test system: renal MATE1; details: 800 mg cimetidine; cited from earlier work
[12] = test system: MATE1, MATE2K, OCT1, OCT2; assay: Substrate specificity and overlap among the four transporters (ratio cutoff 2); assay type: cell-based, human; details: transport ratio cutoff of 2
[13] = fold uptake over empty vector, 2.5 μM, 1 min

- MATE2 substrate* ([1]; Table S4): 1
- MATE2 ([1]; uptake ratio MATE2K-overexpressing vs empty-vector HEK293 cells, 2.5 μM, 1 min, mean): 5.38
- OCT1 substrate* [2]: 1
- MATE1 Vmax ([3]; HEK293, 1 min, net uptake): 2849 pmol × mg protein^–1 × min^–1
- OCT2 substrate* [4]: 0
- MATE2K Vmax [5]: 1662 pmol × mg protein^–1 × min^–1
- Km [5]: 94.5 µM
- MATE1 substrate* ([6]; Table S4): 1
- MATE1 ([6]; uptake ratio MATE1-overexpressing vs empty-vector HEK293 cells, 2.5 μM, 1 min, mean): 13.34
SMILES: CN(C)CCc1c[nH]c2ccc(C[C@H]3COC(=O)N3)cc12 [Zolmitriptan (S), Zolmitriptan]

SMILES: c1c2c(cc3c1OCO3)-c1cc3ccc4c(c3c[n+]1CC2)OCO4 [Coptisine]
- MATE2K ratio [1]: 6.48
- microsomal CLint [7]: 131 µL/min/mg
- Km [8]: 20 µM
- MATE1 Clint [8]: 145 μL × mg protein^–1 × min^–1
- MATE1 Vmax [3]: 2901 pmol × mg protein^–1 × min^–1
- MATE2K Vmax [5]: 246 pmol × mg protein^–1 × min^–1
- Km [5]: 1.88 µM
- MATE1 ratio [6]: 9.90
- microsomal CLint [9]: 145 µL/min/mg

- MATE2K ratio in this study ([1]; Table S1, 2.5 μM, 1 min): 3.60
- MATE2K ratio [1, 13]: 3.60
- MATE2 (uptake ratio) ([1]; mean ratio of uptake in MATE2K-overexpressing HEK293 cells vs empty vector, 2.5 μM, 1 min): 3.6
- MATE1 ratio in this study ([6]; Table S1, 2.5 μM, 1 min): 11.52
- MATE1 ratio [6, 13]: 11.52
- MATE1 ratio ([6]; fold uptake over empty vector, 2.5 μM, 1 min, listed as cimetidine): above 2
- MATE1 (uptake ratio) ([6]; mean ratio of uptake in MATE1-overexpressing HEK293 cells vs empty vector, 2.5 μM, 1 min): 11.52
SMILES: CN/C(=N\CCSCc1nc[nH]c1C)NC#N [Cimetidine]
- eliminated unchanged via the kidneys [10]: more than 70%
- inhibition of metformin elimination [11]: approximately 43%

SMILES: CN(C)C(=O)Oc1cccc([N+](C)(C)C)c1 [Neostigmine]
- MATE2K ratio [1]: 5.31
- Substrate specificity among MATE1, MATE2K, OCT1, OCT2 [12]: All four transporters
- Km [8]: 160 µM
- MATE1 Clint [8]: 45.2 μL × mg protein^–1 × min^–1
- MATE1 Vmax [3]: 7255 pmol × mg protein^–1 × min^–1
- MATE2K Vmax [5]: 3139 pmol × mg protein^–1 × min^–1
- Km [5]: 385 µM
- MATE1 ratio [6]: 32.31
